Laboratory results from patent publication US8030446B2, “Mutant proline-and-arginine rich peptides and methods for using the same” (Trustees of Dartmouth College, priority 2006, dated 2011).
“And” between values parts separate entries of the source, which are not always exact repeats. Equal values may be shown once. Read-outs that look alike come from different tables or passages of the source. Marks after values point to notes of the source that are not given here. Ends that are not written are not given here.

Legend:
[1] = test system: genes regulating the NF-κB pathway in human umbilical vein endothelial cells (HUVEC); assay: NF-κB pathway-specific gene expression microarray in HUVEC treated with PR peptides; type: cell-based; details: for overall inhibitory effect on NF-κB pathway-related gene expression (in words): FIG. 1, averaged % inhibition over 13 down-regulated genes, relative to PR11; for AKT1 gene expression / ATF2 gene expression / CREB1 gene expression / ELK3 gene expression / JNK1 gene expression / MEK4 gene expression / MEKK1 gene expression / MEKK2 gene expression / NF-κB1 gene expression / NF-κB2 gene expression / P38 MAPK gene expression / RANK gene expression / RIP gene expression / TAK1 gene expression / TBK1 gene expression / TRAF6 gene expression / number of significantly reduced genes: HUVEC; for AKT1 gene expression / ATF2 gene expression / CREB1 gene expression / ELK3 gene expression / JNK1 gene expression / MEK4 gene expression / MEKK1 gene expression / MEKK2 gene expression / NF-κB1 gene expression / NF-κB2 gene expression / P38 MAPK gene expression / RANK gene expression / RIP gene expression / TAK1 gene expression / TBK1 gene expression / TRAF6 gene expression: PR peptides 1 μM, 8 hours, relative to untreated controls; for number of significantly reduced genes: of the 13 down-regulated genes of Tables 5 and 6
Protocol: Cell Culture. Human umbilical vein endothelial cells (HUVEC, Cambrex Bio Science Walkersville, Inc., East Rutherford, N.J.) were cultured in endothelial cell basal medium-2 supplemented with EGM-2 SINGLEQUOTS (Cambrex Bio Science Walkersville, Inc.) and FBS. Confluent HUVEC, passage 3-5, were starved overnight in medium supplemented with 0.5% FBS, 0.25% BSA and incubated with PR peptides (1 μM) for 8 hours in starvation medium.
Total RNA Extraction and Gene Profiling by Microarray. Total RNA extraction was performed using the RNEASY mini kit protocol (QIAGEN, Valencia, Calif.). The quality and quantity of total RNA was determined using RNA 6000 Nano chips (Agilent Technology, Santa Clara, Calif.).
Gene profiling was performed using pathway-specific gene expression array for NF-κB signaling transduction (HS-016.2, SuperArray Bioscience Corp.). A total of 96 cDNA fragments from genes related to NF-κB mediated signal transduction, including: NF-κB/IκB family, NF-κB responsive genes (adhesion molecules, cytokines), extracellular ligands, transmembrane receptors, adaptor proteins, signal transduction kinases, and transcription factors were printed in tetraspot format on 3.8×4.8 cm nylon array membrane. Total RNA (0.5 μg) was reverse-transcribed into cDNA labeled with biotin-dUTP according to the manufacture's protocol. After overnight hybridization at 60° C., array membranes were treated with alkaline phosphate-conjugated streptavidin followed by chemiluminescent alkaline phosphate substrate CDP-star (Applied Biosystems, Foster City, Calif.) and exposed to X-ray film. The data were extracted from raw images using […] software (SuperArray, Bioscience Corp.). After background subtraction, the level of gene expression was determined as signal intensity units relative to total array intensity signal. Statistical significant altered genes (PR peptides vs. control) at P values <0.05 were analyzed by Student's t-test, 2-tailed distribution. The data were expressed as fold change PR peptides relative to controls (untreated cells kept in similar conditions).

[2] = target: T1, Mammalian (Human) 20s Proteasome (Homo sapiens, UniProt P25788); assay: Chymotrypsin-like (ChT-L) peptidase activity of 20S proteasome, N-succinyl-LLVY-AMC substrate; type: biochemical; details: for IC50: 15-minute pre-incubation, 1 hour at 37° C., pH 7.5, 0.03% SDS
T1 construct: purchased Boston Biochem (Cambridge, Mass.)
Protocol: Determination of Enzymatic Activity. Mammalian (Human) 20s Proteasome was purchased from Boston Biochem (Cambridge, Mass.); substrate, N-succinyl-LLVY-AMC was purchased from SIGMA (St. Louis, Mo.); and negative control, Lactacystin, was purchased from SIGMA. […] Activity was determined by measuring the amount of a fluorescence observed upon release of the MCA group after a 1 hour incubation at 37° C. in 50 mM sodium phosphate buffer at pH 7.5 containing 0.03% SDS. Inhibition by PR-peptide was measured after a 15-minute pre-incubation at 37° C. of each peptide with 20S proteasome, followed by the addition of the substrate and the one hour incubation.

[3] = chymotrypsin-like activity, read-out: I50

Row | IC50 [2, 3] | Substance | overall inhibitory effect on NF-κB pathway-related gene expression (in words) [1] | AKT1 gene expression [1] | ATF2 gene expression [1] | CREB1 gene expression [1] | ELK3 gene expression [1] | JNK1 gene expression [1] | MEK4 gene expression [1] | MEKK1 gene expression [1] | MEKK2 gene expression [1] | NF-κB1 gene expression [1] | NF-κB2 gene expression [1] | P38 MAPK gene expression [1] | RANK gene expression [1] | RIP gene expression [1] | TAK1 gene expression [1] | TBK1 gene expression [1] | TRAF6 gene expression [1] | further results
1 | 2.71 µM | KKKPRPPYLPR [KKK] | lowest inhibitory effect in this series | 1.7 fold change | −1.3 fold change | −1.3 fold change | 1.4^# fold change | −2.5 fold change | −2.8* fold change | −2.0 fold change | −1.5 fold change | −2.4 fold change | −1.4 fold change | −1.3 fold change | 1.2 fold change | −2.6 fold change | −2.9* fold change | −1.8^# fold change | −1.3 fold change | number of significantly reduced genes [1]: 3 genes
2 | 5 µM and 4.99 µM | RRRARPPYLPR [Peptide A4] | – | – | – | – | – | – | – | – | – | – | – | – | – | – | – | – | – | –
3 | 49.4 µM | ARRPRPPELPR [Peptide A1E8] | reduced activity compared with PR11 or Trp12 | 0.8 fold change | −1.5* fold change | −2.2* fold change | ^−1.9^# fold change | −1.5 fold change | −1.2 fold change | −0.8 fold change | −1.2 fold change | −1.6 fold change | −3.5* fold change | −1.6 fold change | 1.3 fold change | −10.4^# fold change | −1.8 fold change | −2.0^# fold change | −1.6 fold change | –
4 | 0.685 µM | RRRPRPPYLPA [Peptide A11] | – | – | – | – | – | – | – | – | – | – | – | – | – | – | – | – | – | –
5 | 2.37 µM | RRRPRPPELPR [Peptide E8] | reduced activity compared with PR11 or Trp12 | 0.8 fold change | −1.6* fold change | −1.9 fold change | ^−1.8^# fold change | −1.2 fold change | −1.2 fold change | −1.0 fold change | −1.3 fold change | −1.7 fold change | −1.4 fold change | −1.5 fold change | 1.5 fold change | −3.6* fold change | −1.7* fold change | −2.3^# fold change | −1.2 fold change | –
6 | 0.004 µM | H-RRRPRPPYLPRPRPPPFFPPRLPPRIPPGFPPRFPPRFP-OH [PR39, reference compound] | – | – | – | – | – | – | – | – | – | – | – | – | – | – | – | – | – | –
7 | 20.1 µM | RAAPRPPYLPR [RAA] | – | – | – | – | – | – | – | – | – | – | – | – | – | – | – | – | – | –
8 | 0.137 µM | RRRPRPPYGPR [Peptide G9] | – | – | – | – | – | – | – | – | – | – | – | – | – | – | – | – | – | 20S proteasome inhibiting activity (in words) ([2]; chymotrypsin-like activity): fully active
9 | 2.77 µM | RARPRPPYLPR [Peptide A2] | dramatically reduced PR11 activity | 1.4 fold change | −1.2 fold change | −1.4 fold change | 1.0 fold change | −1.5 fold change | −1.9 fold change | −1.8 fold change | −0.9 fold change | −1.2 fold change | −0.8 fold change | −0.9 fold change | 1.4 fold change | −1.1 fold change | −0.8 fold change | −1.3 fold change | −1.1 fold change | –
10 | – | AAAPRPPYLPR [AAA, reference compound] | – | – | – | – | – | – | – | – | – | – | – | – | – | – | – | – | – | IC50 ([2]; I50, chymotrypsin-like activity): > 100 µM
11 | – | RRRPRPPYLPRW [Peptide W12] | – | 2.5^# fold change | −2.7^# fold change | −1.6 fold change | 1.3^# fold change | −5.3* fold change | −4.0^# fold change | −4.6* fold change | −2.4^# fold change | −2.6 fold change | −1.9* fold change | −2.5^# fold change | 2.1^# fold change | −5.5* fold change | −2.0^# fold change | −4.7^# fold change | −3.1* fold change | 20S proteasome inhibiting activity (in words) ([2]; chymotrypsin-like activity): did not noticeably alter PR11 activity
12 | 2.65 µM | RRRPAPPYLPR [Peptide A5] | – | – | – | – | – | – | – | – | – | – | – | – | – | – | – | – | – | –
13 | 0.543 µM | RKRPRPPYLPR [Peptide K2] | not significantly different than PR11 | 1.6 fold change | −2.0^# fold change | −2.6 fold change | 1.5* fold change | −3.1 fold change | −9.3^# fold change | −5.3* fold change | −1.7 fold change | −2.1 fold change | −1.5 fold change | −1.4 fold change | 1.1 fold change | −2.8* fold change | −2.1* fold change | −4.6^# fold change | −2.5 fold change | number of significantly reduced genes [1]: 6 genes
14 | 14.5 µM | AARPRPPYLPR [AAR] | – | – | – | – | – | – | – | – | – | – | – | – | – | – | – | – | – | –
15 | 2.81 µM | ARRPRPPYLPR [Peptide A1] | dramatically reduced PR11 activity | 1.3 fold change | −1.4* fold change | −1.4 fold change | 0.9 fold change | −1.1 fold change | −0.9 fold change | −1.0 fold change | −1.2 fold change | −1.1 fold change | −1.1 fold change | −1.1 fold change | 1.2 fold change | −0.9 fold change | −1.4* fold change | −1.4* fold change | −1.1 fold change | –
16 | 0.851 µM | RRRPRPAYLPR [Peptide A7] | – | – | – | – | – | – | – | – | – | – | – | – | – | – | – | – | – | –
17 | 0.819 µM | RRKPRPPYLPR [Peptide K3] | not significantly different than PR11 | 1.7 fold change | −1.6* fold change | −1.6 fold change | 1.4^# fold change | −3.2* fold change | −3.1* fold change | −3.2 fold change | −1.9^# fold change | −2.2 fold change | −1.2 fold change | −1.7* fold change | 1.7* fold change | −2.4* fold change | −3.1^# fold change | −1.8* fold change | −1.7 fold change | number of significantly reduced genes [1]: 8 genes
18 | 11.3 µM | ARAPRPPYLPR [ARA] | – | – | – | – | – | – | – | – | – | – | – | – | – | – | – | – | – | –
19 | 1.22 µM | RRRPRAPYLPR [Peptide A6] | – | – | – | – | – | – | – | – | – | – | – | – | – | – | – | – | – | –
20 | 0.782 µM | RRRPRPPYLAR [Peptide A10] | – | – | – | – | – | – | – | – | – | – | – | – | – | – | – | – | – | –
